Test results: patent publication US11535754B2, “Silicon containing detectable compounds and uses thereof” (Singular Genomics Systems, Inc., priority 2019, dated 2022)

Test: Absorption maximum (λmax) of the azasiline dyes, from the HPLC / LC-MS absorption profile
Format: physicochemical
Conditions: absorption profile from HPLC/LC-MS analysis (FIGS. 1A-1B: 100 mM TEAA and ACN); value for compound 4 from initial attempts to quantify the absorption
Protocol: FIGS. 1A-1B. Absorption profile for compound 2 (FIG. 1A) and compound 3 (FIG. 1B), as described herein: HPLC chromatogram of the reaction mixture with 100 mM triethylammonium acetate (TEAA) and acetonitrile (ACN).
A mixture of 1a (0.155 mmol) and hydrochloric acid (0.053 mL) in absolute ethanol (1.6 mL) was cooled to 0° C., to which a solution of sodium nitrite (12.1 mg in 0.107 mL) in water was added and stirred for 3 hours after which the solid (dark green crystals) was filtered off. It was diluted with ethanol (1 mL) and 0.02 mL of 1N HCl was added to the mixture. The resulting mixture was refluxed for 4 hours. The progress of the reaction was monitored by HPLC using triethylammonium acetate (TEAA) and acetonitrile (ACN) as the mobile phases on reverse phase (RP) C18 column. The formation of the product was confirmed by mass analysis and HPLC analysis based on the wavelength (see FIG. TA). […]
Synthesis of compound 3. […] The reaction mixture was stirred for overnight and the progress of the reaction was monitored by LC-MS analysis to generate compound 3 (λmax 810 nm); see FIG. 1B.
Synthesis of compound 4. […] The reaction mixture was stirred for overnight and the progress of the reaction was monitored by LC-MS analysis to generate and confirm the presence of compound 4.

Compound: CN1CCCc2cc3c(cc21)[Si](C)(C)c1cc2c(cc1=N3)CCC[N+]=2C [compound 4]
- absorption maximum (λmax): greater than 850 nm
